Values joined by “and” are separate entries in the source; they are usually repeats but may differ in a detail not shown here. Equal entries are not always repeated. Where two headings read alike, the source gives them in different places. *1 amine or outer side, *2 acyl side, *3 side chain or, on linkers, in order; H or OH if unused. Where a SMILES comes first, the peptide text is derived from it. [ ]: non-standard residue; d: D form. ξ: configuration not given here. ξNMeVal(3-OH) = CNC(C(=O)O)C(C)(C)O; NMeF = CN[CH](Cc1ccccc1)C(=O)O; X1 = CCC(C)C(O[*:1])C(=O)[*:2]; NMeV = CN[CH](C(=O)O)C(C)C
Key:
Botrytis cinerea = test: Liquid culture test in well plates: Botrytis cinerea (Gray mould), Example 1-1; format: cell-based
Experimental: (§1) Mycelia fragments or conidia suspensions of a fungus, prepared either freshly from liquid cultures of the fungus or from cryogenic storage, are directly mixed into nutrient broth. DMSO solutions of the test compound (max. 10 mg/mL) is diluted with 0.025% Tween20 by factor 50 and 10 μL of this solution is pipetted into a microtiter plate (96-well format). […] The test plates are incubated in the dark at 24° C. and 96% relative humidity (rh). The inhibition of fungal growth is determined photometrically and visually after 3-7 days, depending on the pathosystem, and percent antifungal activity relative to the untreated check is calculated.
Conidia of the fungus from cryogenic storage were directly mixed into nutrient broth (PDB potato dextrose broth). After placing a DMSO solution of the test compositions into a microtiter plate (96-well format), the nutrient broth containing the fungal spores was added.

Alternaria solani = test: Liquid culture test in well plates: Alternaria solani (early blight of tomato/potato), Example 1-2; format: cell-based; conditions: for inhibition at 0.0012 ppm: component (B) alone at 0.0012 ppm
Experimental: as §1, with “The inhibition of fungal growth is determined photometrically and visually after 3-7 days, depending on the pathosystem, and percent antifungal activity relative to the untreated check is calculated.” left out
Conidia of the fungus from cryogenic storage were directly mixed into nutrient broth (PDB potato dextrose broth). After placing a DMSO solution of the test compositions into a microtiter plate (96-well format) the nutrient broth containing the fungal spores was added.

[1] = component (B) alone at 0.0003 ppm, 72 hours
[2] = Botrytis cinerea, component (B) alone at 0.0006 ppm, 72 hours, read-out: (B) inhibition
[3] = Botrytis cinerea, component (B) alone at 0.0012 ppm, 72 hours, read-out: (B) inhibition
[4] = Botrytis cinerea, component (B) alone at 0.0025 ppm, 72 hours
[5] = Botrytis cinerea, component (B) alone at 0.0050 ppm, 72 hours
[6] = Alternaria solani, component (B) alone at 0.0025 ppm, 48 hours, read-out: (B) inhibition
[7] = Botrytis cinerea, component (B) alone at 0.0003 ppm, 72 hours
[8] = component (B) alone at 0.0006 ppm, 72 hours
[9] = component (B) alone at 0.0050 ppm, 72 hours
[10] = component (B) alone at 0.0050 ppm, 48 hours
[11] = component (B) alone at 0.0012 ppm, 72 hours

`CCC(C)C1NC(=O)C2CCCN2C(=O)C(Cc2ccccc2)N(C)C(=O)C(Cc2ccccc2)NC(=O)C(C(C)C)N(C)C(=O)C(C(C)CC)OC(=O)C(C(C)(C)O)N(C)C(=O)C(CC(C)C)NC(=O)C(C(C)C)N(C)C1=O` (stereo not shown) [Aureobasidin A] (cyclo([ξNMeVal(3-OH)][X1][NMeV]F[NMeF]PI[NMeV]L); configuration not given here) was tested, and the “(A) inhibition” value (Botrytis cinerea; Aureobasidin A (A) alone at 0.0003 ppm, 72 hours) was 9% and 1%, the “(A) inhibition” value (Botrytis cinerea; Aureobasidin A (A) alone at 0.0006 ppm, 72 hours) was 6% and the “(A) inhibition” value (Botrytis cinerea; Aureobasidin A (A) alone at 0.0200 ppm, 72 hours) was 32%. For the same compound, the inhibition at 0.0002 ppm (Botrytis cinerea; Botrytis cinerea, 72 h, read-out: (A) inhibition, Aureobasidin A (A) alone at 0.0002 ppm) was 5%, the inhibition at 0.0006 ppm (Botrytis cinerea; Botrytis cinerea, 72 h, read-out: (A) inhibition, Aureobasidin A (A) alone at 0.0006 ppm) was 9% and the inhibition at 0.0012 ppm (Botrytis cinerea; Botrytis cinerea, 72 h, read-out: (A) inhibition, Aureobasidin A (A) alone at 0.0012 ppm) was 9%. For the same compound, the inhibition at 0.0001 ppm (Alternaria solani; Alternaria solani, 48 h, read-out: (A) inhibition, Aureobasidin A (A) alone at 0.0001 ppm) was 9%, the inhibition at 0.0025 ppm (Alternaria solani; Alternaria solani, 48 h, read-out: (A) inhibition, Aureobasidin A (A) alone at 0.0025 ppm) was 20% and the inhibition at 0.005 ppm (Alternaria solani; Alternaria solani, 48 h, read-out: (A) inhibition, Aureobasidin A (A) alone at 0.0050 ppm) was 5%. For the same compound, the inhibition at 0.01 ppm (Alternaria solani; Alternaria solani, 48 h, read-out: (A) inhibition, Aureobasidin A (A) alone at 0.0100 ppm) was 17%, the inhibition at 0.04 ppm (Alternaria solani; Alternaria solani, 48 h, read-out: (A) inhibition, Aureobasidin A (A) alone at 0.0400 ppm) was 36% and the “(A) inhibition” value (Alternaria solani; Aureobasidin A (A) alone at 0.0050 ppm, 48 hours) was 3%. For the same compound, the “(A) inhibition” value (Alternaria solani; Aureobasidin A (A) alone at 0.0100 ppm, 48 hours) was 14%.
`CC1(C)N=C(c2cnc3ccccc3c2)c2ccccc2C1(F)F` [B-1, quinofumelin] was tested, and the “(B) inhibition” value (Botrytis cinerea; [1]) was 27% and the “(B) inhibition” value (Botrytis cinerea; component (B) alone at 0.0005 ppm, 72 hours) was 37%.
`Cc1ccc2c(C3=NC(C)(C)C(F)(F)c4c(F)cccc43)cnn2c1C` [B-5, 1-(6,7-dimethylpyrazolo[1,5-a]pyridin-3-yl)-4,4,5-trifluoro-3,3-dimethyl-isoquinoline] was tested, and the inhibition at 0.0006 ppm (Botrytis cinerea; [2]) was 17%, the inhibition at 0.0012 ppm (Botrytis cinerea; [3]) was 40% and the inhibition at 0.0025 ppm (Botrytis cinerea; [4]) was 57%. The inhibition at 0.005 ppm (Botrytis cinerea; [5]) was 75%, the inhibition at 0.0012 ppm (Alternaria solani; Alternaria solani, 48 hours) was 30% and the inhibition at 0.0025 ppm (Alternaria solani; [6]) was 56%.
`Cc1ccc2c(C3=NC(C)(C)C(F)(F)c4cc(F)ccc43)cnn2c1C` [B-6, 1-(6,7-dimethylpyrazolo[1,5-a]pyridin-3-yl)-4,4,6-trifluoro-3,3-dimethyl-isoquinoline] was tested, and the inhibition at 0.0006 ppm (Botrytis cinerea; [2]) was 25%, the inhibition at 0.0012 ppm (Botrytis cinerea; [3]) was 34% and the inhibition at 0.0025 ppm (Botrytis cinerea; [4]) was 68%. For the same compound, the inhibition at 0.005 ppm (Botrytis cinerea; [5]) was 84%, the inhibition at 0.0006 ppm (Alternaria solani; Alternaria solani, component (B) alone at 0.0006 ppm, 48 hours) was 22% and the inhibition at 0.0012 ppm (Alternaria solani; Alternaria solani, 48 hours) was 39%. The inhibition at 0.0025 ppm (Alternaria solani; [6]) was 59%.
For `Cc1cccc2c(C3=NC(C)(C)C(F)(F)c4ccccc43)cnn12` [B-7, 4,4-difluoro-3,3-dimethyl-1-(7-methylpyrazolo[1,5-a]pyridin-3-yl)isoquinoline], the inhibition at 0.0006 ppm (Botrytis cinerea; [2]) was 18%, the inhibition at 0.0012 ppm (Botrytis cinerea; [3]) was 40% and the inhibition at 0.01 ppm (Alternaria solani; Alternaria solani, component (B) alone at 0.0100 ppm, 48 hours, read-out: (B) inhibition) was 63%.
With `Cc1ccc2c(ncn2C2=NC(C)(C)C(F)(F)c3c(F)cccc32)c1C` [B-8, 1-(4,5-dimethylbenzimidazol-1-yl)-4,4,5-trifluoro-3,3-dimethyl-isoquinoline] the inhibition at 0.0003 ppm (Botrytis cinerea; [7]) was 22%, the inhibition at 0.0006 ppm (Botrytis cinerea; [2]) was 40% and the inhibition at 0.0012 ppm (Botrytis cinerea; [3]) was 50%. The inhibition at 0.0012 ppm (Alternaria solani; Alternaria solani, 48 hours) was 38%.
`Cc1ccc2c(ncn2C2=NC(C)(C)C(F)(F)c3ccccc32)c1C` [B-9, 1-(4,5-dimethylbenzimidazol-1-yl)-4,4-difluoro-3,3-dimethyl-isoquinoline] was tested, and the inhibition at 0.0003 ppm (Botrytis cinerea; [7]) was 9%, the inhibition at 0.0006 ppm (Botrytis cinerea; [2]) was 28% and the inhibition at 0.0012 ppm (Botrytis cinerea; [3]) was 45%. It also gave an inhibition at 0.0012 ppm (Alternaria solani; Alternaria solani, 48 hours) of 24%.
With `Cc1cccc2c1ncn2C1=NC(C)(C)C(F)(F)c2cc(Cl)ccc21` [B-10, 6-chloro-4,4-difluoro-3,3-dimethyl-1-(4-methylbenzimidazol-1-yl)isoquinoline] the inhibition at 0.0006 ppm (Botrytis cinerea; [2]) was 21%, the inhibition at 0.0012 ppm (Botrytis cinerea; [3]) was 39% and the inhibition at 0.0025 ppm (Botrytis cinerea; [4]) was 49%.
With “N-[(1R)-1-benzyl-1,3-dimethyl-butyl]-8-fluoro-quinoline-3-carboxamide/N-[(1S)-1-benzyl-1,3-dimethyl-butyl]-8-fluoro-quinoline-3-carboxamide [B-2]” the “(B) inhibition” value (Botrytis cinerea; [1]) was 2%, the “(B) inhibition” value (Botrytis cinerea; [8]) was 35% and the “(B) inhibition” value (Botrytis cinerea; [9]) was 70%. The “(B) inhibition” value (Alternaria solani; component (B) alone at 0.0025 ppm, 48 hours) was 0%, the “(B) inhibition” value (Alternaria solani; [10]) was 10% and the “(B) inhibition” value (Alternaria solani; component (B) alone at 0.0100 ppm, 48 hours) was 52%.
In the case of “N-[(1R)-1-benzyl-3,3,3-trifluoro-1-methyl-propyl]-8-fluoro-quinoline-3-carboxamide/N-[(1S)-1-benzyl-3,3,3-trifluoro-1-methyl-propyl]-8-fluoro-quinoline-3-carboxamide [B-3]”, the “(B) inhibition” value (Botrytis cinerea; [8]) is reported as 10%, the “(B) inhibition” value (Botrytis cinerea; [11]) is reported as 32% and the “(B) inhibition” value (Botrytis cinerea; [9]) is reported as 52%.
With “N-[(1R)-1-benzyl-3-chloro-1-methyl-but-3-enyl]-8-fluoro-quinoline-3-carboxamide/N-[(1S)-1-benzyl-3-chloro-1-methyl-but-3-enyl]-8-fluoro-quinoline-3-carboxamide [B-4]” the “(B) inhibition” value (Botrytis cinerea; [8]) was 33%, the “(B) inhibition” value (Botrytis cinerea; [11]) was 46% and the “(B) inhibition” value (Botrytis cinerea; component (B) alone at 0.0025 ppm, 72 hours) was 60%. For the same compound, the “(B) inhibition” value (Alternaria solani; [10]) was 32%.

Reference: patent US12527322B2, “Fungicidal compositions” (SYNGENTA CROP PROTECTION AG, priority 2020, dated 2026)
